The text below walks through data of ChEMBL document CHEMBL4819013, “The giardicidal activity of lobendazole, fabomotizole, tenatoprazole and ipriflavone: A ligand-based virtual screening and in vitro study” (Eur J Med Chem, 2021).

For assay [1], the system named is Giardia intestinalis. The assay is described as follows: Giardicidal activity against Giardia intestinalis IMSS isolate incubated for 48 hrs by hemocytometric counting method. The assay is classed as functional, organism-based. As to conditions: Giardia duodenalis.
Assay [2] concerns Giardia intestinalis. The assay is described as follows: Giardicidal activity against albendazole-resistant Giardia intestinalis incubated for 48 hrs by hemocytometric counting method. The note with it: Giardia duodenalis. The assay is classed as functional, organism-based.
For assay [3], the system named is Giardia intestinalis. The assay can be described thus: Giardicidal activity against metronidazole-resistant Giardia intestinalis incubated for 48 hrs by hemocytometric counting method. In kind it is functional, organism-based. The note with it: Giardia duodenalis.
The test system of assay [4] is Giardia intestinalis. The assay can be described thus: Giardicidal activity against Giardia intestinalis WB ATCC 30957 incubated for 48 hrs by hemocytometric counting method. The note with it: Giardia duodenalis, WB ATCC 30957, 48 h. In kind it is functional, organism-based.
In assay [5] the test system is Giardia intestinalis. The assay can be described thus: Giardicidal activity against nitazoxanide-resistant Giardia intestinalis incubated for 48 hrs by hemocytometric counting method. The assay is classed as functional, organism-based. As to conditions: Giardia duodenalis.
The subject of assay [6] is Giardia intestinalis. The assay can be described thus: Potency index, ratio of albendazole IC50 to test compound IC50 for Giardicidal activity against nitazoxanide resistant Giardia intestinalis incubated for 48 hrs by hemocytometric counting method. In kind it is functional, Giardia duodenalis.
Assay [7] relates to Giardia intestinalis. The assay can be described thus: Potency index, ratio of nitazoxanide IC50 to test compound IC50 for Giardicidal activity against nitazoxanide-resistant Giardia intestinalis incubated for 48 hrs by hemocytometric counting method. The assay is classed as functional, Giardia duodenalis.
Assay [8] deals with Giardia intestinalis. The assay is described as follows: Potency index, ratio of albendazole IC50 to test compound IC50 for Giardicidal activity against albendazole-resistant Giardia intestinalis incubated for 48 hrs by hemocytometric counting method. The assay is classed as functional, Giardia duodenalis.
In assay [9] the test system is Giardia intestinalis. The assay can be described thus: Potency index, ratio of metronidazole IC50 to test compound IC50 for Giardicidal activity against metronidazole-resistant Giardia intestinalis incubated for 48 hrs by hemocytometric counting method. In kind it is functional, Giardia duodenalis.

On to `CC(C)Oc1ccc2c(=O)c(-c3ccccc3)coc2c1` [IPRIFLAVONE], for which the IC50 (as a rule, the concentration that gives 50% inhibition) in the assay on Giardia intestinalis [1] came out at 0.025 µM; in the assay with Giardia intestinalis [2] it was 0.045 µM; in the assay on Giardia intestinalis [3] it was 0.51 µM; with Giardia intestinalis [4], 0.034 µM; in the assay with Giardia intestinalis [5], 0.014 µM.

For `Cc1ncc([N+](=O)[O-])n1CCO` [METRONIDAZOLE], the concentration for half-maximal inhibition (IC50) with Giardia intestinalis [2] worked out at 1.63 µM; in the assay with Giardia intestinalis [3], 1.85 µM.

Turning to `CC(=O)Oc1ccccc1C(=O)Nc1ncc([N+](=O)[O-])s1` [NITAZOXANIDE], the IC50 in the assay with Giardia intestinalis [1] came to 0.015 µM; in the assay on Giardia intestinalis [2] it was 0.021 µM; in the assay on Giardia intestinalis [3], 0.017 µM; in the assay on Giardia intestinalis [4] it was 0.018 µM; with Giardia intestinalis [5] it was 1.97 µM.

Turning to `CCOC(=O)Nc1nc2ccccc2[nH]1` [LOBENDAZOLE], the IC50 in the assay on Giardia intestinalis [1] turned out to be 0.037 µM; in the assay with Giardia intestinalis [2], 0.916 µM; in the assay on Giardia intestinalis [3], 0.2 µM; in the assay with Giardia intestinalis [4], 0.085 µM; with Giardia intestinalis [5] it was 0.061 µM. Moreover, the “Ratio IC50” value was 4.5 with Giardia intestinalis [6] and 32 in the assay with Giardia intestinalis [7].

Take `COc1ccc2[nH]c([S+]([O-])Cc3ncc(C)c(OC)c3C)nc2n1` (stereo not given) [TENATOPRAZOLE]: the IC50 in the assay on Giardia intestinalis [1] was found to be 0.02 µM; with Giardia intestinalis [2] it was 0.027 µM; with Giardia intestinalis [3], 0.059 µM; in the assay with Giardia intestinalis [4], 0.019 µM; in the assay on Giardia intestinalis [5], 0.049 µM. Moreover, the “Ratio IC50” value in the assay with Giardia intestinalis [8] was 5; in the assay on Giardia intestinalis [7], 40; in the assay with Giardia intestinalis [9], 31.

Consider `CCCSc1ccc2[nH]c(NC(=O)OC)nc2c1` [ALBENDAZOLE], for which the half-inhibitory concentration (IC50) was found to be 0.137 µM in the assay on Giardia intestinalis [2], 0.047 µM in the assay with Giardia intestinalis [4] and 0.277 µM in the assay with Giardia intestinalis [5].

Turning to `CCOc1ccc2nc(SCCN3CCOCC3)[nH]c2c1` [FABOMOTIZOLE], the IC50 in the assay on Giardia intestinalis [1] came out at 0.029 µM; with Giardia intestinalis [2] it was 0.05 µM; with Giardia intestinalis [3], 0.05 µM; in the assay on Giardia intestinalis [4], 0.031 µM; in the assay on Giardia intestinalis [5], 0.065 µM.
